In PMC10615177 (ACS infectious diseases, 2023):
Like-named read-outs stand apart in the source and are kept apart here.

Key:
[1] = system: M. smegmatis; experiment: M. smegmatis cell growth inhibition; format: cell-based, Mycobacterium smegmatis; settings: read-out: Ms IC50; M. smegmatis
[2] = system: M. tuberculosis HN878; experiment: M. tuberculosis HN878 growth inhibition; format: cell-based, Mycobacterium tuberculosis; settings: for Less activity than SQ109 against M. tuberculosis: MtbHN878, MtErdman and MtH37Rv; for IC50: read-out: Mtb HN878 IC50, dose-response curves; for Mtb HN878 MIC: visual inspection
[3] = system: M. tuberculosis Erdman; experiment: M. tuberculosis Erdman growth inhibition; format: cell-based, Mycobacterium tuberculosis
[4] = system: M. tuberculosis H37Rv; experiment: M. tuberculosis H37Rv growth inhibition; format: cell-based, Mycobacterium tuberculosis
[5] = system: M. abscessus smooth variant; experiment: microbe, parasite or virus in culture; format: cell-based
[6] = system: M. abscessus rough variant; experiment: microbe, parasite or virus in culture; format: cell-based
[7] = system: Bacillus subtilis; experiment: B. subtilis growth inhibition; format: cell-based; settings: read-out: Bs IC50
[8] = system: E. coli; experiment: E. coli growth inhibition; format: cell-based, Escherichia coli; settings: for IC50: read-out: Ec IC50
[9] = system: T. brucei bloodstream forms; experiment: T. brucei bloodstream form growth inhibition; format: cell-based, Trypanosoma brucei; settings: read-out: T. brucei IC50; bloodstream forms
[10] = system: T. cruzi Dm28c epimastigotes; experiment: T. cruzi epimastigote growth inhibition; format: cell-based, Trypanosoma cruzi; settings: read-out: T. cruzi IC50 (EPI); epimastigotes
[11] = system: T. cruzi Dm28c intracellular amastigotes; experiment: T. cruzi intracellular amastigote inhibition; format: cell-based, Trypanosoma cruzi; settings: read-out: T. cruzi IC50 (PAR); intracellular amastigotes in U2OS host cells
[12] = system: L. donovani promastigotes; experiment: L. donovani promastigote growth inhibition; format: cell-based, Leishmania donovani; settings: read-out: L. donovani IC50; promastigotes
[13] = biological target: M. tuberculosis MmpL3 (MtMmpL3) (Mycobacterium tuberculosis, UniProt P9WJV5); experiment: Surface plasmon resonance binding to MmpL3; settings: for koff: 1:1 Langmuir binding model
[14] = DSC of DMPC bilayers with inhibitor; format: physicochemical; settings: for Tm (main transition) / ΔH / ΔT1/2: 10 wt % inhibitor, PBS pH 7.4, heating
[15] = DSC of DSPG bilayers with inhibitor; format: physicochemical; settings: for Tm (main transition) / ΔH / ΔT1/2: 10 wt % inhibitor, PBS pH 7.4, heating; for Broadening of main transition peak ΔΤ1/2 compared to pure DSPG / Decrease of Tm compared to DSPG alone: heating
[16] = system: HepG2 (human hepatocellular carcinoma) cells; experiment: HepG2 cell line viability
[17] = system: U2OS host cells; experiment: U2OS host cell growth inhibition; settings: read-out: T. cruzi CC50 (U20S)
[18] = system: Plasmodium falciparum asexual blood stages; experiment: P. falciparum asexual blood stage; format: cell-based; settings: read-out: PfABS IC50 (μM ± S.E.); asexual blood stages
[19] = Rat liver microsome stability; settings: rat liver microsomes
[20] = Mice liver microsome stability; settings: mice microsomes
[21] = Human liver microsome stability
[22] = system: L. mexicana promastigotes; experiment: L. mexicana promastigote growth inhibition; format: cell-based, Leishmania mexicana; settings: read-out: L. mexicana IC50; promastigotes
[23] = system: M. abscessus strain PIPD1^R1 (A309P mutation in MmpL3); settings: cited from earlier work
[24] = read-out: KD, 1:1 model, 1:1 binding model, from ratio of rate constants
[25] = read-out: KD, 2-state, two-state model, from rate constants

M. tuberculosis MmpL3 (MtMmpL3), sequence (P9WJV5 whole entry): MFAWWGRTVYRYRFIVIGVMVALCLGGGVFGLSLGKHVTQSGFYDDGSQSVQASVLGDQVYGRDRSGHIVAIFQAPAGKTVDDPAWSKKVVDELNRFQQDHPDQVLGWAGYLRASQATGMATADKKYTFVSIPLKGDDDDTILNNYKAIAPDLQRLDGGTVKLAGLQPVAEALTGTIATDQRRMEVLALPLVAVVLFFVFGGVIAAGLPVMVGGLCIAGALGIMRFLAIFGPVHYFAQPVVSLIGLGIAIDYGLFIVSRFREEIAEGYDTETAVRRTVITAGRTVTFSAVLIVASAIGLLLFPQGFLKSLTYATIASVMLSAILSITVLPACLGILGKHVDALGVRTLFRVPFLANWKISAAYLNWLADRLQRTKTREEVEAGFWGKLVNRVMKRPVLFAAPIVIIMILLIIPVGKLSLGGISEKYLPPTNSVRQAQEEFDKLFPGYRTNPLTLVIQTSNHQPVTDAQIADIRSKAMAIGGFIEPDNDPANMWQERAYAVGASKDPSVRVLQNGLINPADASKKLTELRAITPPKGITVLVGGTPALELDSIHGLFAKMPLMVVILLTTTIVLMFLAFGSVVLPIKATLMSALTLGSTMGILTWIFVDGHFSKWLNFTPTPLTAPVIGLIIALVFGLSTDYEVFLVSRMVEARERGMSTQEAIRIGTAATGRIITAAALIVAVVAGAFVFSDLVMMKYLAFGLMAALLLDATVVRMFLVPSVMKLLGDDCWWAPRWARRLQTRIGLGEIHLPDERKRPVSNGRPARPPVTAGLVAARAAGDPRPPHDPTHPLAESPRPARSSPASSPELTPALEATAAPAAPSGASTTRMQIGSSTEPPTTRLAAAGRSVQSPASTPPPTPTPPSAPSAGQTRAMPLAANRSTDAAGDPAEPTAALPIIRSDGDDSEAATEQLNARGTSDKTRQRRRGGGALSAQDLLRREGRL

SMILES	IC50 [1] [nM]	IC50 [2] [nM]	Mtb HN878 MIC [2] [µM]	Mtb Erdman MIC [3] [µM]	Mtb H37Rv MIC [4] [µM]	Ma(S) MIC [5] [µM]	Ma(R) MIC [6] [µM]	IC50 [9] [nM]	IC50 [10] [nM]	IC50 [11] [nM]	IC50 [12] [nM]	koff [13] [s⁻¹]	Kd [13, 24] [nM]	Kd [13, 25] [nM]	ka1 ([13]; two-state model) [M⁻¹ s⁻¹]	ka2 ([13]; two-state model) [s⁻¹]	kd1 ([13]; two-state model) [s⁻¹]	kd2 ([13]; two-state model) [s⁻¹]	Tm (main transition) [14] [°C]	ΔH [14] [kcal/mol]	also measured
CC(C)=CCCC(C)=CCNCCNC1(Cc2ccccc2)C2CC3CC(C2)CC1C3 (stereo not drawn) [Compound 8g, N-(3,7-dimethylocta-2,6-dien-1-yl)-N´-(2-benzyladamantan-2-yl)ethane-1,2-diamine]	6000	2000 ± 500	1.6	6.1	6.1	5.8	5.8	850 ± 90	6600 ± 1000	920 ± 60	6100 ± 60	0.3999	69000	74000	6462	0.006528	0.5715	0.03248	16.6	5.16	Less activity than SQ109 against M. tuberculosis [2]: 2–4 fold; Activity against M. abscessus higher than SQ109 [5]: 4–8 fold; MIC against M. abscessus [5]: 5.8 to 6.2 µM; IC50 [7]: 590 nM; IC50 [8]: 130000 nM; ΔT1/2 [14]: 10 °C; Broadening of main transition peak ΔΤ1/2 compared to pure DMPC ([14]; heating): 9.6 °C; Decrease of Tm compared to DMPC without inhibitor ([14]; heating): ~6.9 °C; Tm (main transition) [15]: 48.0 °C; ΔH [15]: 13.3 kcal/mol; ΔT1/2 [15]: 1.7 °C; Broadening of main transition peak ΔΤ1/2 compared to pure DSPG [15]: 0.2–1.6 °C; Decrease of Tm compared to DSPG alone [15]: ~ 5 °C; HepG2 % viability @ 20 μM [16]: 100%; CC50 [17]: 2000 ± 400 nM
CC(C)=CCCC(C)=CCNCCNC1(c2ccccc2)C2CC3CC(C2)CC1C3 (stereo not drawn) [Compound 8h, N-(3,7-dimethylocta-2,6-dien-1-yl)-N´-(2-phenyl-adamantan-2-yl)ethane-1,2-diamine]	5800	2300 ± 200	1.6	13	13	12	6	1300 ± 300	7300 ± 2000	600 ± 40	1400 ± 1000	0.465	115000	136000	25900	0.00526	4.085	0.03247	14.7	7.12	Ec IC50 [8]: No inhibition; IC50 [18]: 0.42 ± 0.09 µM; ΔT1/2 [14]: 2.7 °C; Decrease of Tm compared to DMPC without inhibitor ([14]; heating): ~8.8 °C; Tm (main transition) [15]: 48.6 °C; ΔH [15]: 13.2 kcal/mol; ΔT1/2 [15]: 5.3 °C; Broadening of main transition peak ΔΤ1/2 compared to pure DSPG [15]: 4.4 °C; Decrease of Tm compared to DSPG alone [15]: ~ 5 °C; HepG2 % viability @ 20 μM [16]: 100%; Intrinsic clearance rate (CLint) relative to SQ109 [19]: about twice as large; Metabolism relative to SQ109 [19]: more rapidly metabolized; % remanent at 60 minutes relative to SQ109 [20]: same % remanent as SQ109 (8a); Intrinsic clearance rate (CLint) relative to SQ109 [20]: essentially the same; Intrinsic clearance rate (CLint) relative to SQ109 ([21]; human liver microsomes): about twice as large; Metabolism relative to SQ109 ([21]; human liver microsomes): more rapidly metabolized; CC50 [17]: 3500 ± 1000 nM
CC(C)=CCCC(C)=CCNCCNC1(C)C2CC3CC(C2)CC1C3 (stereo not drawn) [Compound 8b, N-(3,7-dimethylocta-2,6-dien-1-yl)-N´-(2-methyl-2-adamantanyl)ethane-1,2-diamine]	4400 ± 500	860 ± 60	0.8	3.5	3.5	43	22	2100 ± 20	3500 ± 1000	770 ± 200	2000 ± 1000	0.6882	188000	248000	4958	0.01084	1.613	0.03486	17.9	6.12	IC50 higher than SQ109, MtHN878 [2]: ~ 3 fold; Less activity than SQ109 against M. tuberculosis [2]: 2–4 fold; IC50 [8]: 25000 nM; IC50 [22]: 430 ± 80 nM; IC50 [18]: 0.66 ± 0.18 µM; ΔT1/2 [14]: 2.2 °C; Decrease of Tm compared to DMPC without inhibitor ([14]; heating): ca. 5.6 °C; Tm (main transition) [15]: 50.5 °C; ΔH [15]: 12.7 kcal/mol; ΔT1/2 [15]: 2.0 °C; Broadening of main transition peak ΔΤ1/2 compared to pure DSPG [15]: 0.2–1.6 °C; Decrease of Tm compared to DSPG alone [15]: 3–4 °C; HepG2 % viability @ 20 μM [16]: 100%; Intrinsic clearance rate (CLint) relative to SQ109 [19]: about twice as large; Intrinsic clearance rate (CLint) relative to SQ109 [20]: essentially the same; Intrinsic clearance rate (CLint) relative to SQ109 ([21]; human liver microsomes): about twice as large; Stability relative to SQ109 (% remanent at 60 minutes) ([21]; human, mice and rat liver microsomes): 2–4 x; CC50 [17]: 2800 ± 700 nM
Cc1ccccc1CN1CCC(O)(c2ccc(Cl)c(C(F)(F)F)c2)CC1 [PIPD1]	–	–	–	–	–	–	–	–	–	–	–	–	–	–	–	–	–	–	–	–	Resistance (fold) ([23]; MmpL3 inhibitor resistance): 32–64 x; Resistance of strain PIPD1^R1 [23]: very high resistance
CCCCC1(NCCNCC=C(C)CCC=C(C)C)C2CC3CC(C2)CC1C3 (stereo not drawn) [Compound 8e, N-(3,7-dimethylocta-2,6-dien-1-yl)-N´-(2-butyladamantan-2-yl)ethane-1,2-diamine]	2500	2500 ± 200	3	9.7	12.9	6.2	6.2	370 ± 20	2500 ± 1000	840 ± 500	4000 ± 400	0.3888	97000	108000	5151	0.009897	0.7008	0.03763	15.7	5.83	Activity against M. abscessus higher than SQ109 [5]: 4–8 fold; MIC against M. abscessus [5]: 5.8 to 6.2 µM; IC50 [7]: 540 nM; IC50 [8]: 7800 nM; IC50 [18]: 0.27 ± 0.04 µM; ΔT1/2 [14]: 2.2 °C; Decrease of Tm compared to DMPC without inhibitor ([14]; heating): ~7.8 °C; Tm (main transition) [15]: 49.0 °C; ΔH [15]: 9.2 kcal/mol; ΔT1/2 [15]: 3.6 °C; Broadening of main transition peak ΔΤ1/2 compared to pure DSPG [15]: 2.7 °C; Decrease of Tm compared to DSPG alone [15]: ~ 5 °C; HepG2 % viability @ 2 μM ([16]; 2 μM): 83%; HepG2 % viability @ 20 μM [16]: 50%; CC50 [17]: 1700 ± 1000 nM
